Measurements: patent US11950596B2, “Methods of protecting seeds from oxidants and microorganisms” (The United States of America, as represented by the …, priority 2020, dated 2024)
Like-named read-outs stand apart in the source and are kept apart here. Marks after values point to notes of the source that are not given here.

What was measured:
A. flavus 3357 = experiment: Antifungal seed disinfection bioassay (OG plus mild heat), A. flavus infection of cabbage seeds; type: in vivo, Aspergillus flavus; conditions: for No. of seedlings infected: 12 seeds; for % A. flavus infection: mean over 20/50° C. and 20/30 min
Description: Antifungal seed disinfection bioassays using OG: Effect of OG plus mild heat hurdle technology on the level of seed sanitation (Brassica rapa Pekinensis; Chinese cabbage hybrid) was evaluated. Twelve cabbage seeds (per treatment), unsterilized, were transferred to each 1.5 mL microcentrifuge tube filled with 1 mL (final volume) distilled water, without or with A. flavus (1×10^5 CFU/mL): (1) No OG, no A. flavus inoculum, 20 or 30 min, 20° C.; (2) No OG, no A. flavus inoculum, 20 or 30 min, 50° C.; (3) No OG, w/A. flavus, 20 or 30 min, 20° C.; (4) No OG, w/A. flavus, 20 or 30 min, 50° C.; (5) OG 2 mM, w/A. flavus, 20 or 30 min, 20° C., (6) OG 2 mM, w/A. flavus, 20 or 30 min, 50° C., (7) OG 3 mM, w/A. flavus, 20 or 30 min, 20° C.; (8) OG 3 mM, w/A. flavus, 20 or 30 min, 50° C.; (9) OG 4 mM, w/A. flavus, 20 or 30 min, 20° C.; and (10) OG 4 mM, w/A. flavus, 20 or 30 min, 50° C. After each treatment, the treated seeds (total 12 seeds per treatment) were transferred to PDA and the plates were incubated in the dark at room temperature (RT; 20° C.) for seed germination. After seed germination, the growth of seedlings and fungal germination on the surfaces of germinated seeds were monitored up to 7 days (RT).
Seed disinfection via heat-sensitizing activity of OG: Heat-sensitizing capacity of OG was investigated further with crop seeds (Brassica rapa Pekinensis; Chinese cabbage hybrid) contaminated with A. flavus 3357 on the seed surfaces. OG (0, 2, 3, 4 mM) and mild heat (50° C.; Control: 20° C.) were co-applied for 20 to 30 minutes, and the rates of seed germination were also determined.

A. flavus 4212 = experiment: Heat-sensitizing bioassay of OG (MFC) in other fungi; type: cell-based, Aspergillus flavus; conditions: 90 seconds
Description: (§1) As described in A. flavus 3357 test (see above), microfuge tubes were treated with mild heat (57.5° C.) or maintained at RT (22.0° C.) (90 seconds). After heat treatments, entire volume (200 μL) from each microfuge tube was spread onto fresh recovery LB agar (for bacteria) or PDA (for fungi), and plates were incubated at the optimum temperature for respective microorganisms (i.e., 35° C. for Aspergillus, 37° C. for E. coli, 28° C. for Penicillium/A. tumefaciens, respectively). The growth/survival of test microorganisms were monitored after 48 to 72 hrs of incubation.
(§2) Heat-sensitizing activity of OG against other fungi: Heat-sensitizing activity of OG was then investigated in other fungi (five Aspergillus strains and seven Penicillium strains) including fungicide resistant strains (i.e., P. expansum FR2, FR3 resistant to the conventional fungicide fludioxonil) (see Table 1).

A. brasiliensis 16404 = experiment: as above; type: cell-based, Aspergillus brasiliensis; conditions: 90 seconds
Description: as §1, §2

A. tumefaciens 4212 = experiment: Heat-sensitizing bioassay of OG (MBC) in bacteria; type: cell-based, Agrobacterium tumefaciens; conditions: 90 seconds, read-out: minimum bactericidal concentration (MBC) of OG
Description: as §1
(§3) Heat-sensitizing activity of OG against bacteria (A. tumefaciens, E. coli): Heat-sensitizing activity of OG was also investigated against bacterial cells (i.e., E. coli and plant-pathogenic A. tumefaciens). […] (Table 4; FIG. 2).

[1] = system: twelve fungi (Aspergillus and Penicillium); experiment: Heat-sensitizing bioassay of OG, average MFC of twelve fungi; type: cell-based; conditions: 90 seconds; for MFC: read-out: average MFC of OG from twelve fungi
Description: as §1, §2
(RT) to 57.5° C. (mild heat).

E. coli JM109 = experiment: Heat-sensitizing bioassay of OG (MBC) in bacteria; type: cell-based; conditions: Escherichia coli, 90 seconds, read-out: minimum bactericidal concentration (MBC) of OG
Description: as §1, §3

P. griseofulvum 2159 = experiment: Heat-sensitizing bioassay of OG (MFC) in other fungi; type: cell-based, Penicillium griseofulvum; conditions: 90 seconds
Description: as §1, §2

A. parasiticus 2999 = experiment: as above; type: cell-based, Aspergillus parasiticus; conditions: 90 seconds
Description: as §1, §2

A. parasiticus 5862 = experiment: as above; type: cell-based, Aspergillus parasiticus; conditions: 90 seconds
Description: as §1, §2

CCCCCCCCOC(=O)c1cc(O)c(O)c(O)c1 [Octyl gallate]
No. of seedlings infected (A. flavus 3357; OG 2 mM, 20° C., 20 min): 12
No. of seedlings infected (A. flavus 3357; OG 2 mM, 20° C., 30 min): 10
No. of seedlings infected (A. flavus 3357; OG 2 mM, 50° C., 20 min): 4
No. of seedlings infected (A. flavus 3357; OG 2 mM, 50° C., 30 min): 1
% A. flavus infection (A. flavus 3357; OG 2 mM): 57 ± 43%
No. of seedlings infected (A. flavus 3357; OG 3 mM, 20° C., 20 min): 10
No. of seedlings infected (A. flavus 3357; OG 3 mM, 20° C., 30 min): 10
No. of seedlings infected (A. flavus 3357; OG 3 mM, 50° C., 20 min): 0^d
No. of seedlings infected (A. flavus 3357; OG 3 mM, 50° C., 30 min): 0^d
% A. flavus infection (A. flavus 3357; OG 3 mM): 42 ± 48%
growth of A. flavus contaminated on crop seeds (A. flavus 3357; OG 3 mM, mild heat 50° C., 20 to 30 minutes): completely inhibited
No. of seedlings infected (A. flavus 3357; OG 4 mM, 20° C., 20 min): 12
No. of seedlings infected (A. flavus 3357; OG 4 mM, 20° C., 30 min): 11
No. of seedlings infected (A. flavus 3357; OG 4 mM, 50° C., 20 min): 0^d
No. of seedlings infected (A. flavus 3357; OG 4 mM, 50° C., 30 min): 0^d
% A. flavus infection (A. flavus 3357; OG 4 mM): 48 ± 56%
growth of A. flavus on crop seeds (A. flavus 3357; OG as low as 3 mM, mild heat 50° C., 20 min): completely inhibited
MFC (A. flavus 4212; Aspergillus flavus, 4212, 22.0° C.): > 300 µM
MFC (A. flavus 4212; Aspergillus flavus, 4212, 57.5° C.): 180 µM
MFC (A. brasiliensis 16404; Aspergillus brasiliensis, 16404, 22.0° C.): > 300 µM
MFC (A. brasiliensis 16404; Aspergillus brasiliensis, 16404, 57.5° C.): 160 µM
MBC (A. tumefaciens 4212; Agrobacterium tumefaciens, 4212, 22° C.): 200 µM
MBC (A. tumefaciens 4212; Agrobacterium tumefaciens, 4212, 57.5° C.): 75 µM
MFC ([1]; 22.0° C., listed as OG): >283.3 µM
average MFC of OG from twelve fungi ([1]; 57.5° C., listed as OG): 175.8 (p < 0.005) μM
MFC ([1]; Aspergillus, 22.0° C.): > 283 µM
MFC ([1]; Aspergillus, 57.5° C.): 176 µM
MBC (E. coli JM109; JM109, 22° C.): 300 µM
MBC (E. coli JM109; JM109, 57.5° C.): 75 µM
MFC (P. griseofulvum 2159; Penicillium griseofulvum, 2159, 22.0° C.): > 300 µM
MFC (P. griseofulvum 2159; Penicillium griseofulvum, 2159, 57.5° C.): 180 µM
MFC (A. parasiticus 2999; Aspergillus parasiticus, 2999, 22.0° C.): > 300 µM
MFC (A. parasiticus 2999; Aspergillus parasiticus, 2999, 57.5° C.): 200 µM
MFC (A. parasiticus 5862; Aspergillus parasiticus, 5862, 22.0° C.): > 300 µM
MFC (A. parasiticus 5862; Aspergillus parasiticus, 5862, 57.5° C.): 300 µM
